Results as given in ChEMBL document CHEMBL1201862, “PubChem BioAssay data set” (2004).
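1) Cells in 96-well plates. 2) Compound, 48 h, 5 concentrations. 3) Linear interpolation between surrounding doses. 4) Unreached endpoint = highest concentration. Here, GI50 denotes the concentration required for 50% inhibition of growth.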 Calls of active or inactive are those of the source. No stated cut-off is given here; in the data, active = GI50 up to about 1.1 µM and inactive = higher.

Legend:
Experiment in all cases: NCI anticancer screen, dose series, 48 h
TK-10 = system: TK-10
SK-MEL-28 = system: SK-MEL-28
HOP-62 = system: HOP-62
SF-295 = system: SF-295
NCI-H460 = system: NCI-H460
CAKI-1 = system: CAKI-1
UACC-257 = system: UACC-257
SF-539 = system: SF-539
Hs-578T = system: Hs-578T
LOX IMVI = system: LOX IMVI
SN12C = system: SN12C
OVCAR-5 = system: OVCAR-5
BT-549 = system: BT-549
OVCAR-8 = system: OVCAR-8
SK-MEL-2 = system: SK-MEL-2
MDA-N = system: MDA-N
SNB-19 = system: SNB-19
MDA-MB-231 = system: MDA-MB-231
SK-OV-3 = system: SK-OV-3
SW-620 = system: SW-620

Row | Compound | GI50 (TK-10) | GI50 (SK-MEL-28) | GI50 (HOP-62) | GI50 (SF-295) | GI50 (NCI-H460) | GI50 (CAKI-1) | GI50 (UACC-257) | GI50 (SF-539) | GI50 (Hs-578T) | GI50 (LOX IMVI) | GI50 (SN12C) | GI50 (OVCAR-5) | GI50 (BT-549) | GI50 (OVCAR-8) | GI50 (SK-MEL-2) | GI50 (MDA-N) | GI50 (SNB-19) | GI50 (MDA-MB-231) | GI50 (SK-OV-3) | GI50 (SW-620)
1 | Cn1c(=O)c2nc(CCCc3ccc([N+](=O)[O-])cc3)[nH]c2n(C)c1=O | > 100 µM (inactive) | > 100 µM (inactive) | > 100 µM (inactive) | > 100 µM (inactive) | 91.2 µM (inactive) | > 100 µM (inactive) | > 100 µM (inactive) | 38.5 µM (inactive) | > 100 µM (inactive) | > 100 µM (inactive) | > 100 µM (inactive) | > 100 µM (inactive) | > 100 µM (inactive) | > 100 µM (inactive) | > 100 µM (inactive) | > 100 µM (inactive) | > 100 µM (inactive) | > 100 µM (inactive) | > 100 µM (inactive) | –
2 | N=c1oc2ccc(Cl)cc2cc1C(=O)Nc1ccccc1 | > 75.2 µM (inactive) | > 100 µM (inactive) | 21.6 µM (inactive) | > 100 µM (inactive) | > 100 µM (inactive) | 11.1 µM (inactive) | > 54.6 µM (inactive) | > 65.9 µM (inactive) | 15.4 µM (inactive) | > 100 µM (inactive) | > 100 µM (inactive) | > 100 µM (inactive) | > 54 µM (inactive) | 56.5 µM (inactive) | > 100 µM (inactive) | > 100 µM (inactive) | > 62.5 µM (inactive) | 53.8 µM (inactive) | 23.3 µM (inactive) | > 100 µM (inactive)
3 | c1ccc(C(OCCN2CC3CCC(C2)N3)c2ccccc2)cc1 | > 100 µM (inactive) | 29.9 µM (inactive) | > 100 µM (inactive) | 83 µM (inactive) | 50.4 µM (inactive) | > 100 µM (inactive) | 22.7 µM (inactive) | 82.4 µM (inactive) | 75.9 µM (inactive) | 66.4 µM (inactive) | > 100 µM (inactive) | > 100 µM (inactive) | 22 µM (inactive) | > 100 µM (inactive) | 76.7 µM (inactive) | 26.4 µM (inactive) | > 100 µM (inactive) | > 100 µM (inactive) | > 100 µM (inactive) | 81.3 µM (inactive)
4 | COC(=O)C1=C(O)C(C(=O)OC)[C@]2(O)[C@H](C(=O)OC)[C@H]1C[C@@H](c1ccc(F)cc1)[C@H]2C(=O)OC (stereo not given in full) | 21.9 µM (inactive) | 14.2 µM (inactive) | 22.6 µM (inactive) | 14.2 µM (inactive) | 17.4 µM (inactive) | 19.1 µM (inactive) | 11.9 µM (inactive) | 18.2 µM (inactive) | 21.7 µM (inactive) | 18.4 µM (inactive) | 3.63 µM (inactive) | 17.7 µM (inactive) | 21.4 µM (inactive) | 20.9 µM (inactive) | 4.35 µM (inactive) | 3.87 µM (inactive) | 19.1 µM (inactive) | 30.1 µM (inactive) | 22.6 µM (inactive) | 13.2 µM (inactive)
5 | COC(=O)NC1C(C)OC(OC2C/C=C(/C)C3C=CC4C(OC5CC(OC6CC(O)C(OC7CC(O)C(OC)C(C)O7)C(C)O6)C(O)C(C)O5)C(C)CC(C)C4C3(C)C(=O)C3=C(O)C4(CC(C)C(CO)=CC4/C=C\2C)OC3=O)CC1(C)[N+](=O)[O-] (stereo not given) | 10 µM (inactive) | 11.2 µM (inactive) | 15.4 µM (inactive) | 16.6 µM (inactive) | 12.3 µM (inactive) | 19.4 µM (inactive) | 13.9 µM (inactive) | 16.9 µM (inactive) | 10.9 µM (inactive) | 11.5 µM (inactive) | 12.9 µM (inactive) | 17.9 µM (inactive) | 13.5 µM (inactive) | 9.38 µM (inactive) | 11.4 µM (inactive) | 9.55 µM (inactive) | 19.1 µM (inactive) | 12.6 µM (inactive) | 12 µM (inactive) | 9.86 µM (inactive)
6 | CC1=CCC([C@@](C)(O)CCCC(C)(C)N=C=S)CC1 (stereo not given in full) | 22 µM (inactive) | 16.6 µM (inactive) | 22.6 µM (inactive) | 19.4 µM (inactive) | 16.5 µM (inactive) | – | 19.4 µM (inactive) | 19.2 µM (inactive) | 26.5 µM (inactive) | 16 µM (inactive) | 18.1 µM (inactive) | 19.4 µM (inactive) | 17.8 µM (inactive) | 17.7 µM (inactive) | 17.7 µM (inactive) | 18.4 µM (inactive) | 17.3 µM (inactive) | 19.1 µM (inactive) | 17.9 µM (inactive) | 18.3 µM (inactive)
7 | Nc1nc(N)c2cc(CNc3ccc(C(=O)NC(CC(=O)O)C(=O)O)c(Cl)c3)ccc2n1 (stereo not given) | 0.0803 µM (active) | 0.288 µM (active) | – | 0.0698 µM (active) | 0.0256 µM (active) | 0.0877 µM (active) | 0.259 µM (active) | 0.313 µM (active) | 357 µM (inactive) | < 0.01 µM (active) | 0.278 µM (active) | 0.191 µM (active) | 25.8 µM (inactive) | 0.032 µM (active) | 15 µM (inactive) | < 0.01 µM (active) | 0.248 µM (active) | 337 µM (inactive) | 6.82 µM (inactive) | < 0.0103 µM (active)
8 | CCN(CCO)CC1CCCC2CCCCC21 (stereo not given) | > 100 µM (inactive) | > 100 µM (inactive) | > 100 µM (inactive) | > 100 µM (inactive) | > 100 µM (inactive) | > 100 µM (inactive) | > 100 µM (inactive) | > 100 µM (inactive) | > 100 µM (inactive) | – | > 100 µM (inactive) | > 100 µM (inactive) | > 100 µM (inactive) | > 100 µM (inactive) | > 100 µM (inactive) | > 100 µM (inactive) | > 100 µM (inactive) | > 100 µM (inactive) | > 100 µM (inactive) | > 100 µM (inactive)
9 | NC(=O)C(=CNC(=S)c1ccncc1)C(N)=O | > 100 µM (inactive) | – | > 100 µM (inactive) | > 100 µM (inactive) | > 100 µM (inactive) | > 100 µM (inactive) | > 100 µM (inactive) | > 100 µM (inactive) | > 100 µM (inactive) | > 100 µM (inactive) | > 100 µM (inactive) | > 100 µM (inactive) | > 100 µM (inactive) | > 100 µM (inactive) | > 100 µM (inactive) | > 100 µM (inactive) | > 100 µM (inactive) | > 100 µM (inactive) | > 100 µM (inactive) | > 100 µM (inactive)
10 | Cc1cc2nc(N3C(=O)/C(=C/c4ccc(Cl)cc4)N=C3c3ccccc3)sc2cc1C | 39.3 µM (inactive) | 55.7 µM (inactive) | 28.9 µM (inactive) | 31.2 µM (inactive) | 23.7 µM (inactive) | 26.4 µM (inactive) | 28.4 µM (inactive) | 18.7 µM (inactive) | 26 µM (inactive) | 20.5 µM (inactive) | 24 µM (inactive) | 24.2 µM (inactive) | 26.4 µM (inactive) | 28.4 µM (inactive) | 26.5 µM (inactive) | 12.5 µM (inactive) | 42.5 µM (inactive) | 50 µM (inactive) | 46.2 µM (inactive) | 27.6 µM (inactive)
11 | COP(=O)(OC)C(NC=O)P(=O)(OC)OC | > 100 µM (inactive) | > 100 µM (inactive) | > 100 µM (inactive) | > 100 µM (inactive) | > 100 µM (inactive) | > 100 µM (inactive) | – | > 100 µM (inactive) | > 100 µM (inactive) | > 100 µM (inactive) | > 100 µM (inactive) | – | > 100 µM (inactive) | > 100 µM (inactive) | – | > 100 µM (inactive) | > 100 µM (inactive) | > 100 µM (inactive) | > 100 µM (inactive) | > 100 µM (inactive)
12 | O=[N+]([O-])c1cc2ccc1OCc1cccc(n1)COc1ccc(cc1[N+](=O)[O-])/C=N\CCCCCCCC/N=C\2 | > 100 µM (inactive) | > 100 µM (inactive) | > 100 µM (inactive) | > 100 µM (inactive) | > 100 µM (inactive) | > 100 µM (inactive) | > 100 µM (inactive) | > 100 µM (inactive) | > 100 µM (inactive) | > 100 µM (inactive) | > 100 µM (inactive) | > 100 µM (inactive) | > 100 µM (inactive) | > 100 µM (inactive) | > 100 µM (inactive) | > 100 µM (inactive) | > 100 µM (inactive) | > 100 µM (inactive) | – | > 100 µM (inactive)
13 | CN(/N=C/c1ccccn1)C1=NCCCCN1 | > 100 µM (inactive) | > 100 µM (inactive) | > 100 µM (inactive) | > 100 µM (inactive) | > 100 µM (inactive) | > 100 µM (inactive) | > 100 µM (inactive) | > 100 µM (inactive) | > 100 µM (inactive) | > 100 µM (inactive) | – | > 100 µM (inactive) | > 100 µM (inactive) | > 100 µM (inactive) | > 100 µM (inactive) | > 100 µM (inactive) | > 100 µM (inactive) | > 100 µM (inactive) | > 100 µM (inactive) | > 100 µM (inactive)
14 | COc1cccc2c1C(=O)c1c(O)c3c(c(O)c1C2=O)CC(O)(C(=O)CO)CC3OC1CC(N2CCOCC2C#N)C(O)C(C)O1 (stereo not given) | < 0.0001 µM (active) | < 0.0001 µM (active) | < 0.0001 µM (active) | < 0.0001 µM (active) | < 0.0001 µM (active) | < 0.0001 µM (active) | < 0.0001 µM (active) | < 0.0001 µM (active) | > 0.01 µM (active) | < 0.0001 µM (active) | < 0.0001 µM (active) | < 0.0001 µM (active) | < 0.0001 µM (active) | < 0.0001 µM (active) | < 0.0001 µM (active) | < 0.0001 µM (active) | < 0.0001 µM (active) | < 0.0001 µM (active) | > 0.01 µM (active) | < 0.0001 µM (active)
